Consider 14 compounds from patent publication US20200286590A1, “SYSTEMS, APPARATUS, AND METHODS FOR GENERATING AND ANALYZING RESISTOME PROFILES” (priority 2014, published 2020).

In general, MIC refers to the lowest concentration that inhibits growth of the organism.

Converted amounts (≈) assume the structure as drawn. Read-outs that look alike come from different tables or passages of the source. A value given as a limit tells only on which side of the number the result lay.

Assay [1] relates to carbapenem-resistant Enterobacteriaceae. As to conditions: CRE, cited from earlier work.
In assay [2] the test system is K. pneumoniae isolate 850707. As to the kind of experiment: Minimum inhibitory concentration (MIC) results, isolate 850707. To be noted: for MIC: Klebsiella pneumoniae, read-out: MIC Value. Type of assay: cell-based. From the text:
(§1) The ability to view additional or varied information may be set by a user as a preference on a customized basis, or the information may be hidden and made available based on a request or selection from a user according to some embodiments. For example, a display interface may be configured such that the user can make a selection on a short form name or symbol to expand a field or open a new window on the display that provides detailed antibiotic resistance data or other diagnostically useful information for a subject sample. For example, in TABLE 17, the differences in minimum inhibitory concentration (MIC) results for two isolate species are provided.
(§2) In TABLE 18, the isolates are numbered and linked to an isolate species (K. pneumoniae); resistome profiles including the species (K1), phenotype (CRE), genotype (IMP and C1), and profile uniqueness identifiers indicating sequential unique patterns compared to an associated database (1-1 and 2-1, respectively); Acuitas MDRO Gene Test results (IMP(A) and CTX-M(A)); and reported genotypes listed in rank order of clinical importance (IMP-26, CTX-M-15, and SHV-28(u), and IMP-4, CTX-M-15, SHV-1(b), and TEM, respectively). The trailing “1s” in the assigned resistome profiles (i.e., the second digit of each profile uniqueness identifier) reflect the first occurrences of these patterns/profiles derived based on data collected from subject sample measurements. In this example, the tests are not designed to detect SHV, TEM, ACT/MIR, CMY-2, DHA-1, ACT-16, or VEB-1.

The test system of assay [3] is K. pneumoniae isolate 850793. As to the kind of experiment: Minimum inhibitory concentration (MIC) results, isolate 850793. To be noted: for MIC: Klebsiella pneumoniae, read-out: MIC Value. It counts as cell-based.
From the text: as §1, §2

The subject of assay [4] is cephalosporin-resistant (3rd or 4th generation) Gram-negative bacillus. As to conditions: CephR-GNB; Revised (M100-S20); cited from earlier work.
Assay [5] relates to D-alanyl-D-lactate variation of NAM/NAG-peptide subunits. As to conditions: D-alanyl-D-lactate versus D-alanyl-D-alanine; cited from earlier work.
The subject of assay [6] is D-alanyl-D-serine variation of NAM/NAG-peptide subunits. To be noted: D-alanyl-D-serine versus D-alanyl-D-alanine; cited from earlier work.
The mark [7] stands for this setting: Isolate No. 850707, K. pneumoniae, IMP-26, CTX-M-15, SHV-28(u).
Where [8] appears, read: Isolate No. 850793, K. pneumoniae, IMP-4, CTX-M-15, SHV-1(b), TEM.

On to `CO/N=C(\C(=O)N[C@@H]1C(=O)N2C(C(=O)O)=C(CSc3nc(=O)c(=O)[nH]n3C)CS[C@H]12)c1csc(N)n1` [Ceftriaxone], for which, in assay [1] (Revised (M100-S20)), the “MIC breakpoint, Intermediate” value was 2 µg/mL (≈ 3.61 µM); the “MIC breakpoint, Resistant” value is at least 4 µg/mL; the “MIC breakpoint, Susceptible” value is at most 1 µg/mL.

Take `CC1(C)S[C@@H]2[C@H](NC(=O)[C@H](N)c3ccccc3)C(=O)N2[C@H]1C(=O)O` [Ampicillin]: the MIC in assay [2] (setting [7]) and in assay [3] (setting [8]) was 32 µg/mL (≈ 91.6 µM) in each case.

Take Colistin/TWEEN: the “MIC Value” in assay [2] (setting [7]) and in assay [3] (setting [8]) was 0.12 µg/mL in each case.

As for `CO/N=C(\C(=O)N[C@@H]1C(=O)N2C(C(=O)[O-])=C(C[N+]3(C)CCCC3)CS[C@H]12)c1csc(N)n1` [Cefepime], the MIC in assay [2] (setting [7]) is 16 µg/mL (≈ 33.3 µM). In assay [4], the “MIC breakpoint, Intermediate” value was 16 µg/mL (≈ 33.3 µM); the “MIC breakpoint, Resistant” value was at least 32 µg/mL; the “MIC breakpoint, Susceptible” value is at most 8 µg/mL. For the same compound, the MIC in assay [3] (setting [8]) worked out at 16 µg/mL (≈ 33.3 µM).

With `CN(C)c1cc(NC(=O)CNC(C)(C)C)c(O)c2c1C[C@H]1C[C@H]3[C@H](N(C)C)C(O)=C(C(N)=O)C(=O)[C@@]3(O)C(O)=C1C2=O` [Tigecycline], the values for the MIC in assay [2] and in assay [3] were 2 µg/mL (≈ 3.41 µM) and 1 µg/mL (≈ 1.71 µM), respectively.

As for `CC(C)(O/N=C(\C(=O)N[C@@H]1C(=O)N2C(C(=O)[O-])=C(C[n+]3ccccc3)CS[C@H]12)c1csc(N)n1)C(=O)O` [Ceftazidime], in assay [1] (Revised (M100-S20)), the “MIC breakpoint, Intermediate” value is 8 µg/mL (≈ 14.6 µM); the “MIC breakpoint, Resistant” value is at least 16 µg/mL; the “MIC breakpoint, Susceptible” value is at most 4 µg/mL. Moreover, the minimum inhibitory concentration (MIC) in assay [2] (setting [7]) is 16 µg/mL (≈ 29.3 µM). Also, in assay [4], the “MIC breakpoint, Intermediate” value is 8 µg/mL (≈ 14.6 µM); the “MIC breakpoint, Resistant” value is at least 16 µg/mL; the “MIC breakpoint, Susceptible” value is at most 4 µg/mL. In addition, the minimal inhibitory concentration (MIC) in assay [3] (setting [8]) amounted to 128 µg/mL (≈ 234 µM).

With `C[C@@H](O)[C@H]1C(=O)N2C(C(=O)O)=C(SCCN=CN)C[C@H]12` [Imipenem], the MIC in assay [2] (setting [7]) stood at 2 µg/mL (≈ 6.68 µM); in assay [3] (setting [8]) it was 8 µg/mL (≈ 26.7 µM).

On to `CO/N=C(\C(=O)N[C@@H]1C(=O)N2C(C(=O)O)=C(COC(C)=O)CS[C@H]12)c1csc(N)n1` [Cefotaxime], for which, in assay [1] (Revised (M100-S20)), the “MIC breakpoint, Intermediate” value was 2 µg/mL (≈ 4.39 µM); the “MIC breakpoint, Resistant” value was at least 4 µg/mL; the “MIC breakpoint, Susceptible” value is at most 1 µg/mL.

Consider `CN[C@H](CC(C)C)C(=O)N[C@H]1C(=O)N[C@@H](CC(N)=O)C(=O)N[C@H]2C(=O)N[C@H]3C(=O)N[C@H](C(=O)N[C@H](C(=O)O)c4cc(O)cc(O)c4-c4cc3ccc4O)[C@H](O)c3ccc(c(Cl)c3)Oc3cc2cc(c3O[C@@H]2O[C@H](CO)[C@@H](O)[C@H](O)[C@H]2O[C@H]2C[C@](C)(N)[C@H](O)[C@H](C)O2)Oc2ccc(cc2Cl)[C@H]1O` [vancomycin], for which the decrease in affinity in assay [5] is recorded as 1000 fold. Besides, the “loss of affinity between vancomycin and the peptide” value in assay [6] is on record as “six-fold”.

Turning to `C[C@H]1COc2c(N3CCN(C)CC3)c(F)cc3c(=O)c(C(=O)O)cn1c23` [Levofloxacin], the results for the MIC in assay [2] (setting [7]) and in assay [3] (setting [8]) were 1 µg/mL (≈ 2.77 µM) and 0.5 µg/mL (≈ 1.38 µM), respectively.

For the compound `C[C@@H](O)[C@H]1C(=O)N2C(C(=O)O)=C(S[C@@H]3CN[C@H](C(=O)Nc4cccc(C(=O)O)c4)C3)[C@H](C)[C@H]12` [Ertapenem], in assay [1] (Current Breakpoints (M100-S22)), the “MIC breakpoint, Intermediate” value is 1 µg/mL (≈ 2.1 µM); the “MIC breakpoint, Resistant” value was at least 2 µg/mL; the “MIC breakpoint, Susceptible” value was at most 0.5 µg/mL. Further, the MIC in assay [2] (setting [7]) amounted to 6 µg/mL (≈ 12.6 µM). The minimum inhibitory concentration (MIC) in assay [3] (setting [8]) was 1 µg/mL (≈ 2.1 µM).

For the compound `C[C@@H](O)[C@H]1C(=O)N2C(C(=O)O)=C(S[C@@H]3CN[C@H](C(=O)N(C)C)C3)[C@H](C)[C@H]12` [Meropenem], in assay [1] (Current Breakpoints (M100-S22)), the “MIC breakpoint, Intermediate” value is 2 µg/mL (≈ 5.22 µM); the “MIC breakpoint, Resistant” value is at least 4 µg/mL; the “MIC breakpoint, Susceptible” value is at most 1 µg/mL. The MIC in assay [2] (setting [7]) worked out at 32 µg/mL (≈ 83.4 µM). Further, in assay [3] (setting [8]), the minimal inhibitory concentration (MIC) was found to be 8 µg/mL (≈ 20.9 µM).

On to `NCC[C@H](O)C(=O)N[C@@H]1C[C@H](N)[C@@H](O[C@H]2O[C@H](CN)[C@@H](O)[C@H](O)[C@H]2O)[C@H](O)[C@H]1O[C@H]1O[C@H](CO)[C@@H](O)[C@H](N)[C@H]1O` [Amikacin], for which the minimum inhibitory concentration (MIC) in assay [2] (setting [7]) and in assay [3] (setting [8]) was 32 µg/mL (≈ 54.6 µM) throughout.

With `C[C@@H](O)[C@H]1C(=O)N2C(C(=O)O)=C(S[C@@H]3CN[C@H](CNS(N)(=O)=O)C3)[C@H](C)[C@H]12` [Doripenem], in assay [1] (Current Breakpoints (M100-S22)), the “MIC breakpoint, Intermediate” value was 2 µg/mL (≈ 4.76 µM); the “MIC breakpoint, Resistant” value was at least 4 µg/mL; the “MIC breakpoint, Susceptible” value is at most 1 µg/mL. Also, the minimum inhibitory concentration (MIC) in assay [2] (setting [7]) is 32 µg/mL (≈ 76.1 µM). Besides, in assay [3] (setting [8]), the MIC was found to be 4 µg/mL (≈ 9.51 µM).
